Results taken from patent US8969395B2, “Triterpenoid derivatives useful as antiproliferative agents” (Universidade de Coimbra, priority 2009, dated 2015).

Experiments:
[1] = system: HepG2 (human hepatocellular carcinoma); assay: Cytotoxic activity, MTT assay, HepG2; assay type: cell-based; settings: mean ±SD
Description: (§1) The cytotoxic of compounds of formulas (I) and (II) 14-50 was assessed towards human cancer (HepG2, HeLa and Jurkat) cell lines (Table 3 below). Compounds presented on Table 4 were also tested against a non-tumoral liver cell line (Chang liver). The cell viability of HeLa, HepG2 and Chang liver cells was determined by the MTT assay. Briefly, exponentially growing cells were plated in 96-well plates at a density of 1×10^3, 8×10^3 and 5×10^3 cells/well respectively and incubated for 24 h before treatment. The grown medium was replaced with one contained the tested compounds dissolved in DMSO (final DMSO concentration <0.1%) at different concentrations, in triplicate wells, and cells were incubated for 72 h. After incubation with the compounds, the medium was removed and MTT solution (0.5 mg/ml, 100 μl) was added to each well and the plates were incubated again for 1 h. DMSO (100 μl) was then added to dissolve the formazan crystals and the plates were immediately read at 550 nm on an ELISA plate reader (Tecan Sunrise MR20-301, TECAN, Austria). For the Jurkat cells, the cell viability was determined by the XTT assay. Briefly, exponentially growing cells were plated in 96-well plates at a density of 5.5×10^3 cells/well, treated with different concentrations of compounds in triplicate and incubated for 72 h. After incubation with the compounds the XTT labeling mixture (100 μl) were added to each of the wells and after a 4 h incubation period the plates were read at 450 nm on an ELISA plate reader. […] Known for its cytotoxic activity, betulinic acid 2 was used as a positive control in this experimentation. […] All the IC50 results represent an average of a minimum of three experiments and were expressed as means±standard deviation (SD).

[2] = system: Jurkat (human leukemia); assay: Cytotoxic activity, XTT assay, Jurkat; assay type: cell-based; settings: 72 h, mean ±SD
Description: as §1

[3] = system: HeLa (human cervical adenocarcinoma); assay: Cytotoxic activity, MTT assay, HeLa; assay type: cell-based; settings: 72 h, mean ±SD
Description: The cytotoxic of compounds of formulas (I) and (II) 14-50 was assessed towards human cancer (HepG2, HeLa and Jurkat) cell lines (Table 3 below). Compounds presented on Table 4 were also tested against a non-tumoral liver cell line (Chang liver). The cell viability of HeLa, HepG2 and Chang liver cells was determined by the MTT assay. Briefly, exponentially growing cells were plated in 96-well plates at a density of 1×10^3, 8×10^3 and 5×10^3 cells/well respectively and incubated for 24 h before treatment. The grown medium was replaced with one contained the tested compounds dissolved in DMSO (final DMSO concentration <0.1%) at different concentrations, in triplicate wells, and cells were incubated for 72 h. After incubation with the compounds, the medium was removed and MTT solution (0.5 mg/ml, 100 μl) was added to each well and the plates were incubated again for 1 h. DMSO (100 μl) was then added to dissolve the formazan crystals and the plates were immediately read at 550 nm on an ELISA plate reader (Tecan Sunrise MR20-301, TECAN, Austria). For the Jurkat cells, the cell viability was determined by the XTT assay. Briefly, exponentially growing cells were plated in 96-well plates at a density of 5.5×10^3 cells/well, treated with different concentrations of compounds in triplicate and incubated for 72 h. After incubation with the compounds the XTT labeling mixture (100 μl) were added to each of the wells and after a 4 h incubation period the plates were read at 450 nm on an ELISA plate reader. […] Known for its cytotoxic activity, betulinic acid 2 was used as a positive control in this experimentation.

[4] = system: HT-29 (human colon adenocarcinoma); assay: Cytotoxic activity, HT-29; assay type: cell-based; settings: mean ±SD
Description: (§2) Compounds presented in Table 6 were also tested in the following cell lines: PC-3 (human prostate adenocarcinoma), LNCaP (human prostate adenocarcinoma), LAPC4 (human prostate adenocarcinoma) and HT-29 (human colon adenocarcinoma).

[5] = system: Chang liver (human normal liver cells); assay: Cytotoxic activity against non-tumoral cell line, MTT assay; assay type: cell-based; settings: 72 h, mean ±SD
Description: as §1

[6] = system: HepG2 cells; assay: Cell cycle analysis by flow cytometry (FACS, PI), HepG2; assay type: cell-based, human; settings: HepG2, compound at its IC50, 72 h
Description: (§3) The effects on the cell cycle of some of these compounds were assessed through flow cytometry by using a fluorescence-activated cell sorter (FACS) (Table 5 below). For this assay 2.3×10^5 HepG2 cells/well, 2.9×10^4 HeLa cells/well, 1.6×10^5 Jurkat cells/well and 1.4×10^5 Chang liver cells/well were plated in 6 well plates with 2 ml of medium. The number of cells was determined by the relationship number of cells/area wells, considering the number of cells that were cultured in 96-well plates. […] Chang liver cells were incubated with compounds 20, […] at concentrations corresponding to the IC80 determined for HepG2 at 72 h. Following 72 h. of incubation, cells were harvested by mild trypsinization, collected by centrifugation and stained in ice-cold Tris-buffered saline (TBS), containing 1 mg/ml PI, 10 mg/ml RNAse free of DNAase and 0.1% Igepal CA-630 for 1 h at 4° C. FACS analysis was carried out at 488 nm in an Epics XL flow cytometer (Coulter Corporation, Hialeah, Fla.). Data from 8×10^3 cells were collected and analyzed using Multicycle program (Phoenix Flow Systems, San Diego, Calif.). All experiments were performed three times with three replicates per experiment. […] To explore the selectivity of the effect on tumor cells, we also tested compounds 20, 44 and 46 in a non-malignant cell line. Chang liver cells were treated with the compounds at the IC80 values determined for HepG2 after 72 h of incubation and no effect was observed, indicating a selective effect of these agents (Table 5 below).

[7] = system: HeLa cells; assay: Cell cycle analysis by flow cytometry (FACS, PI), HeLa; assay type: cell-based, human; settings: compound at its IC50, 72 h
Description: as §3

[8] = system: Jurkat cells; assay: Cell cycle analysis by flow cytometry (FACS, PI), Jurkat; assay type: cell-based, human; settings: compound at its IC50, 72 h
Description: as §3

[9] = system: LAPC4 (human prostate adenocarcinoma); assay: Cytotoxic activity, LAPC4; assay type: cell-based; settings: mean ±SD
Description: as §2

[10] = system: LNCaP (human prostate adenocarcinoma); assay: Cytotoxic activity, LNCaP; assay type: cell-based; settings: mean ±SD
Description: as §2

[11] = system: PC-3 (human prostate adenocarcinoma); assay: Cytotoxic activity, PC-3; assay type: cell-based; settings: mean ±SD
Description: as §2

Molecule | IC50 ([1]; 72 h) | IC50 [2] | IC50 [3] | IC50 [4] | IC50 [5] | IC50 [9] | IC50 [10] | IC50 [11] | also measured
3β-(1H-imidazole-2′-methyl-1-carbonyloxy)-lup-20(29)-en-28-oic acid [Compound 29] | 7.3 ± 1 µM | 16.1 ± 3.3 µM | 7.5 ± 1.5 µM | 5.7 ± 0.6 µM |  |  |  |  | 
C=C(C)[C@@H]1CC[C@]2(C(=O)O)CC[C@]3(C)[C@H](CC[C@@H]4[C@@]5(C)CC[C@H](O)C(C)(C)[C@@H]5CC[C@]43C)[C@@H]12 [Compound 2, Betulinic acid, reference compound] |  |  |  |  |  |  |  |  | IC50 ([1]; Homo sapiens, HepG2, 72 h): 36.4 ± 1.5 µM; IC50 ([2]; Homo sapiens, Jurkat): 26.9 ± 2.2 µM; IC50 ([3]; Homo sapiens, HeLa): 26 ± 2.1 µM; IC50 ([5]; Homo sapiens, Chang liver): 92.3 ± 4.1 µM; Phase of cell cycle (% of cells) G0/G1 [6]: 59.7 ± 2.0 % of cells; Phase of cell cycle (% of cells) G2/M [6]: 14.3 ± 0.9 % of cells; Phase of cell cycle (% of cells) S [6]: 25.9 ± 1.3 % of cells; Phase of cell cycle (% of cells) G0/G1 [7]: 66.8 ± 1.2 % of cells; Phase of cell cycle (% of cells) G2/M [7]: 11.7 ± 1.1 % of cells; Phase of cell cycle (% of cells) S [7]: 21.4 ± 0.9 % of cells; Phase of cell cycle (% of cells) G0/G1 [8]: 56.8 ± 5.0 % of cells; Phase of cell cycle (% of cells) G2/M [8]: 24.1 ± 4.7 % of cells; Phase of cell cycle (% of cells) S [8]: 18.9 ± 1.2 % of cells
C=C(C)[C@@H]1CC[C@]2(COC(=O)n3ccnc3)CC[C@]3(C)[C@H](CC[C@@H]4[C@@]5(C)CC[C@H](O)C(C)(C)[C@@H]5CC[C@]43C)[C@@H]12 [Compound 14, 3β-hydroxy-lup-20(29)-en-28-yl-1H-imidazole-1-carboxylate] | 4.2 ± 0.3 µM | 16.3 ± 1.2 µM | 7.6 ± 0.6 µM |  | 79.7 ± 6.4 µM | 10.3 ± 1.6 µM | 13 ± 1.5 µM | 21 ± 2 µM | 
C=C(C)[C@@H]1CC[C@]2(COC(=O)n3ccnc3C)CC[C@]3(C)[C@H](CC[C@@H]4[C@@]5(C)CC[C@H](O)C(C)(C)[C@@H]5CC[C@]43C)[C@@H]12 [Compound 15, 3β-hydroxy-lup-20(29)-en-28-yl-2′-methyl-1H-imidazole-1-carboxylate] | 8.1 ± 0.4 µM | 15.8 ± 2.4 µM | 11 ± 1.7 µM | 16.2 ± 2.1 µM |  |  |  |  | 
C=C(C)[C@@H]1CC[C@]2(COC(=O)n3ccnc3)CC[C@]3(C)[C@H](CC[C@@H]4[C@@]5(C)CC[C@H](OC(=O)n6ccnc6)C(C)(C)[C@@H]5CC[C@]43C)[C@@H]12 [Compound 17, Lup-20(29)-en-3β,28-di-yl-(1H-imidazole-1-carboxylate)] | > 30 µM | > 30 µM | > 30 µM |  |  | 12.9 ± 1.1 µM | 14.4 ± 1.3 µM | > 30 µM | 
C=C(C)[C@@H]1CC[C@]2(C(=O)O)CC[C@]3(C)[C@H](CC[C@@H]4[C@@]5(C)CC[C@H](OC(=O)n6ccnc6)C(C)(C)[C@@H]5CC[C@]43C)[C@@H]12 [Compound 28, 3β-(1H-imidazole-1-carbonyloxy)-lup-20(29)-en-28-oic acid] | 6.2 ± 0.2 µM | 5.2 ± 0.7 µM | 5.1 ± 0.3 µM |  | 56.8 ± 2.2 µM | 11.8 ± 0.9 µM | 15.6 ± 0.8 µM | 5.6 ± 0.4 µM | 
C=C(C)[C@@H]1CC[C@]2(C(=O)n3ccnc3)CC[C@]3(C)[C@H](CC[C@@H]4[C@@]5(C)CC[C@H](OC(=O)n6ccnc6)C(C)(C)[C@@H]5CC[C@]43C)[C@@H]12 [Compound 30, 28-(1H-imidazole-1-yl)-28-oxo-lup-20(29)-en-3β-yl-1H-imidazole-1-carboxylate] | 2.9 ± 0.4 µM | 6 ± 1.2 µM | 8.2 ± 0.4 µM |  | 150 ± 13.6 µM | 4.4 ± 0.2 µM | 1.9 ± 0.2 µM | 1.1 ± 0.1 µM | 
C=C(C)[C@@H]1CC[C@]2(C(=O)n3ccnc3C)CC[C@]3(C)[C@H](CC[C@@H]4[C@@]5(C)CC[C@H](OC(=O)n6ccnc6C)C(C)(C)[C@@H]5CC[C@]43C)[C@@H]12 [Compound 31, 28-(2′-methyl-1H-imidazole-1-yl)-28-oxo-lup-20(29)-en-3β-yl-2′-methyl-1H-imidazole-1-carboxylate] | 11.6 ± 0.8 µM | 20.1 ± 3.2 µM |  | 7.8 ± 1.6 µM |  |  |  |  | 
C=C(C)[C@@H]1CC[C@]2(C(=O)OC)CC[C@]3(C)[C@H](CC[C@@H]4[C@@]5(C)CC[C@H](OC(=O)n6ccnc6C)C(C)(C)[C@@H]5CC[C@]43C)[C@@H]12 [Compound 34, Methyl 3β-(2′-methyl-1H-imidazole-1-carbonyloxy)-lup-20(29)-en-28-oate] | 13.4 ± 1.7 µM | 16.4 ± 2.4 µM | 13.4 ± 1.7 µM | 12.9 ± 0.5 µM |  |  |  |  | 
C=C(COC)[C@@H]1CC[C@]2(COC(=O)n3ccnc3)CC[C@]3(C)[C@H](CC[C@@H]4[C@@]5(C)CC[C@H](O)C(C)(C)[C@@H]5CC[C@]43C)[C@@H]12 [Compound 35, 3β-hydroxy-30-methoxylup-20(29)-en-28-yl-1H-imidazole-1-carboxylate] | 8.3 ± 0.4 µM | 12.2 ± 1.3 µM | 9.8 ± 0.6 µM |  | 96.4 ± 7.5 µM | 9.5 ± 0.7 µM | 7.7 ± 0.9 µM | 11.4 ± 1.3 µM | 
C=C(COC)[C@@H]1CC[C@]2(COC(=O)n3ccnc3)CC[C@]3(C)[C@H](CC[C@@H]4[C@@]5(C)CC[C@H](OC(=O)n6ccnc6)C(C)(C)[C@@H]5CC[C@]43C)[C@@H]12 [Compound 38, 30-methoxylup-20(29)-en-3β,28-di-yl-(1H-imidazole-1-carboxylate)] | 19.6 ± 1.6 µM | 16.2 ± 1 µM | > 30 µM |  | 170 ± 17.7 µM | 7.3 ± 1.1 µM | 8.1 ± 1 µM | 2 ± 0.3 µM | 
C[C@@H](C=O)[C@@H]1CC[C@]2(COC(=O)n3ccnc3)CC[C@]3(C)[C@H](CC[C@@H]4[C@@]5(C)CC[C@H](O)C(C)(C)[C@@H]5CC[C@]43C)[C@@H]12 [Compound 41, 3β-hydroxy-(20R)-lupan-29-oxo-28-yl-1H-imidazole-1-carboxylate] | 11.5 ± 1.1 µM | 13.7 ± 1.4 µM | 11.1 ± 1.4 µM |  | 146 ± 4.5 µM | > 30 µM | 15.6 ± 2.4 µM | 16.7 ± 2.4 µM | 
C[C@@H](C=O)[C@@H]1CC[C@]2(COC(=O)n3ccnc3)CC[C@]3(C)[C@H](CC[C@@H]4[C@@]5(C)CC[C@H](OC(=O)n6ccnc6)C(C)(C)[C@@H]5CC[C@]43C)[C@@H]12 [Compound 43, (20R)-lupane-29-oxo-3β,28-di-yl-(1H-imidazole-1-carboxylate)] | 26.1 ± 1.1 µM | 20.2 ± 1.6 µM | 19.2 ± 1.5 µM |  | 156 ± 12.5 µM | 7.9 ± 1.3 µM | 6.9 ± 0.3 µM | 6.2 ± 0.7 µM | 
